Measurements reported in paper PMC13351981, “A multiscale screening platform for rapid GPCR variant profiling reveals color-tuned JSR1 mutants” (Biophysical Journal, 2025).

Assays:
Assay in all cases: UV/Vis absorption by HPLC-SEC diode array after reconstitution and purification
Format in all cases: binding
Conditions in all cases: 50 uM 9-cis retinal reconstitution; covalent (Schiff base to K321); pH 6.5, 20 C, LMNG/CHS
[1] = target: T1, Jumping Spider Rhodopsin 1 (JSR1) (Hasarius adansoni, UniProt B1B1U5, S199V)
T1 construct: gene HaRh1; JSR1 WT + C-terminal 3C site, Twin-Strep, TEV, eGFP, His8; Hi5 insect cells (baculovirus); tags removed by HRV 3C; monomer in LMNG/CHS

[2] = target: T2, Jumping Spider Rhodopsin 1 (JSR1) (Hasarius adansoni, UniProt B1B1U5, S199I)
T2 construct: gene HaRh1; JSR1 WT + C-terminal 3C site, Twin-Strep, TEV, eGFP, His8; Hi5 insect cells (baculovirus); tags removed by HRV 3C; monomer in LMNG/CHS

[3] = target: T3, Jumping Spider Rhodopsin 1 (JSR1) (Hasarius adansoni, UniProt B1B1U5, S199H)
T3 construct: gene HaRh1; JSR1 WT + C-terminal 3C site, Twin-Strep, TEV, eGFP, His8; Hi5 insect cells (baculovirus); tags removed by HRV 3C; monomer in LMNG/CHS

[4] = target: T4, Jumping Spider Rhodopsin 1 (JSR1) (Hasarius adansoni, UniProt B1B1U5, S199F)
T4 construct: gene HaRh1; JSR1 WT + C-terminal 3C site, Twin-Strep, TEV, eGFP, His8; Hi5 insect cells (baculovirus); tags removed by HRV 3C; monomer in LMNG/CHS

[5] = target: T5, Jumping Spider Rhodopsin 1 (JSR1) (Hasarius adansoni, UniProt B1B1U5, S199L)
T5 construct: gene HaRh1; JSR1 WT + C-terminal 3C site, Twin-Strep, TEV, eGFP, His8; Hi5 insect cells (baculovirus); tags removed by HRV 3C; monomer in LMNG/CHS

[6] = target: T6, Jumping Spider Rhodopsin 1 (JSR1) (Hasarius adansoni, UniProt B1B1U5, S199Y)
T6 construct: gene HaRh1; JSR1 WT + C-terminal 3C site, Twin-Strep, TEV, eGFP, His8; Hi5 insect cells (baculovirus); tags removed by HRV 3C; monomer in LMNG/CHS

[7] = target: T7, Jumping Spider Rhodopsin 1 (JSR1) (Hasarius adansoni, UniProt B1B1U5)
T7 construct: gene HaRh1; JSR1 WT + C-terminal 3C site, Twin-Strep, TEV, eGFP, His8; Hi5 insect cells (baculovirus); tags removed by HRV 3C; monomer in LMNG/CHS
T7 sequence (B1B1U5 entry or part of it): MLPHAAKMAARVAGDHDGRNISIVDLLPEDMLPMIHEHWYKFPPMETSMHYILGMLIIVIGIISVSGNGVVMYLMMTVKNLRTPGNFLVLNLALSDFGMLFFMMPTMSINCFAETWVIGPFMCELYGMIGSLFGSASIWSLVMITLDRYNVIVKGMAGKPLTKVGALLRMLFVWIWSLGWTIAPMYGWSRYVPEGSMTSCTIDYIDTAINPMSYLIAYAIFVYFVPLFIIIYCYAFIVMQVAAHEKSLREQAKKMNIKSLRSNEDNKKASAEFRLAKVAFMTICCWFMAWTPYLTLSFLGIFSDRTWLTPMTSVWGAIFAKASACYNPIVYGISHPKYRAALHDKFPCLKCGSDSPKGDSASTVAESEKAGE

T6 sequence (B1B1U5 entry or part of it S199Y): as the sequence (B1B1U5 entry or part of it) above, with S199Y counted along it
T1 sequence (B1B1U5 entry or part of it S199V): as the sequence (B1B1U5 entry or part of it) above, with S199V counted along it
T5 sequence (B1B1U5 entry or part of it S199L): as the sequence (B1B1U5 entry or part of it) above, with S199L counted along it
T3 sequence (B1B1U5 entry or part of it S199H): as the sequence (B1B1U5 entry or part of it) above, with S199H counted along it
T2 sequence (B1B1U5 entry or part of it S199I): as the sequence (B1B1U5 entry or part of it) above, with S199I counted along it
T4 sequence (B1B1U5 entry or part of it S199F): as the sequence (B1B1U5 entry or part of it) above, with S199F counted along it

Structure (SMILES): CC1=C(/C=C/C(C)=C\C=C\C(C)=C\C=O)C(C)(C)CCC1 [9-cis retinal]
- UV/Vis absorption by HPLC-SEC diode array after reconstitution and purification [1]: These mutations cause a full deprotonation in the 9-cis retinal-bound ground state
- UV/Vis absorption by HPLC-SEC diode array after reconstitution and purification [2]: These mutations cause a full deprotonation in the 9-cis retinal-bound ground state
- UV/Vis absorption by HPLC-SEC diode array after reconstitution and purification [3]: These mutations cause a full deprotonation in the 9-cis retinal-bound ground state
- UV/Vis absorption by HPLC-SEC diode array after reconstitution and purification [4]: These mutations cause a full deprotonation in the 9-cis retinal-bound ground state
- UV/Vis absorption by HPLC-SEC diode array after reconstitution and purification [5]: These mutations cause a full deprotonation in the 9-cis retinal-bound ground state
- UV/Vis absorption by HPLC-SEC diode array after reconstitution and purification [6]: These mutations cause a full deprotonation in the 9-cis retinal-bound ground state
- UV/Vis absorption by HPLC-SEC diode array after reconstitution and purification [7]: We observed that all mutants incorporated 9-cis retinal successfully|established workflow with 9-cis retinal-reconstituted JSR1
